Measurements: patent US20030211072A1, “Compositions with enhanced oral bioavailability” (priority 2000, published 2003)

Tests used:
rat everted gut sacs [1] = settings: male, Wistar
rat everted gut sacs [2] = assay: Gut sac viability (active glucose transport); settings: verapamil; exception: 40 μg/ml combined with 1 ng/ml [3H]vinblastine

How did the “effect on tissue uptake and serosal transfer of [14C]doxorubicin” value (rat everted gut sacs [1]) turn out when COc1ccc(CCN(C)CCCC(C#N)(c2ccc(OC)c(OC)c2)C(C)C)cc1OC (stereo not drawn) [Verapamil, verapamil] was run?
The value was “significantly (p<0.05, unpaired student T-test) increased”.

What about the “increase of [14C]doxorubicin uptake and accumulation into the tissue” value (rat everted gut sacs [1]) of the same compound?
The value was 2 fold.

And the “tissue viability (glucose actively transported)” value (rat everted gut sacs [2])?
The value was “good tissue viability”.
